Assay results reported in patent publication US9463198B2, “Compositions and methods for reducing or preventing metastasis” (Infectious Disease Research Institute, priority 2013, dated 2016).

Legend:
MADB 106 tumor cells [1] = test: MADB 106 lung tumor retention (LTR) in F344 rats; type: in vivo, F344 rat; details: for MADB 106 LTR, GLA vs PBS (time course): with epinephrine
Procedure: GLA (IDRI, Seattle, Wash.), dissolved in stable emulsion (SE) (2000 μg/ml) was diluted in PBS for a final concentration of 3 μg/ml-200 μg/ml (depending on the relevant experiment). One-hundred μl from the chosen concentration were injected subcutaneously (s.c.) to each animal (0.3 μg-20 μg/animal), immediately, 4 h, 12 h, 24 h, 48 h, or 96 h prior to MADB106 tumor cell inoculation (depending on the relevant experiment).
MADB 106 tumor cells metastasize only to the lungs, and lung tumor retention (LTR), which is highly indicative of the number of metastases that would have developed weeks later, is dependent upon NK cells in this model. Additionally, because the metastatic process of MADB106 is sensitive to NK activity predominantly during the first 24 h following inoculation, LTR is more reflective of in vivo NK activity levels than the number of actual metastases. The MADB 106 cell line was maintained in monolayer cultures in complete media (RPMI-1640 media supplemented with 10% heat-inactivated fetal calf serum (FCS), 50 μg/mL of gentamicin, 2 mM of 1-glutamine, 0.1 mM of non-essential amino-acids, and 1 mM of sodium pyruvate, (Biological Industries, Kibbutz Biet Haemek, Israel) in 100% humidity, 5% CO2 at 37° C. Cells were removed from the culture flask with trypsin solution (0.25% in PBS), and were washed with complete media. This cell line was used for both in vivo assessment of lung tumor retention and in vitro examination of NK cytotoxicity.
Tumor cell DNA radiolabeling for assessment of LTR was accomplished by adding 0.5 μCi/ml of ^125Iododeoxyuridine (^125IDUR, Danyel Biotech, Rehovot, Israel) to the cell culture for 24 h. For tumor cell injection, rats were lightly anesthetized with isoflurane, and 4×10^5/kg MADB106 tumor cells in 2 ml/kg PBS containing 0.1% bovine serum albumin (BSA) were injected into their tail vein. Some of the experiments also employed an additional 0.5 ml s.c. injection of epinephrine (1.8 mg/kg in females and 0.6 mg/kg in males) dissolved in a slow-release emulsion (4 parts PBS, 3 parts mineral oil (Sigma, Rehovot, Israel), and 1 part mannide-monooleate (a non-specific surface active emulsifier, Sigma, Rehovot, Israel)), for the amplification of MADB 106 retention in the lungs, allowing better group distinction. For assessment of LTR, animals were sacrificed with CO2, their lungs were removed 24 h after inoculation with ^125IDUR-labeled tumor cells, and placed in a γ-counter to assess percent radioactivity retained in this organ. LTR was calculated using the following formula: (radioactivity count of lung−background radioactivity)×100/(radioactivity count of the total injected cell suspension−background radioactivity).
Seventy-five three months old F344 male rats were randomly divided into one of 7 experimental groups administered with PBS, SE, or GLA in a dose/animal of 0.3 μg, 0.7 μg, 2.5 μg, 10 μg, and 20 μg. Each animal was injected s.c. with 100 μl of drug according to its group assignment, and, 24 h later, MADB 106 cells were inoculated (as detailed in section 4 above). Each of these 7 groups was further sub-divided into two separate groups—one that was injected with epinephrine during tumor inoculation, and the second that was injected with vehicle. Twenty-four hours later, animals were sacrificed and lungs were extracted for LTR assessment (as detailed in section 4).
In the first experiment, 75 six-month old F344 male rats were randomly divided into one of 5 injection time points preceding tumor inoculation—0 h, 4 h, 12 h, 24 h, and 48 h. Each group was further sub-divided into one of three experimental drug groups—PBS, SE, and 2 μg GLA. Each animal was injected s.c. with 100 μl according to its relevant drug group, in its designated time point. At time 0 h, MADB106 cells were injected (as detailed in section 4), along with epinephrine. […]

MADB 106 tumor cells [2] = test: Three week study of MADB106 metastases development in the lungs; type: in vivo, F344 rat; details: male and female rats, 2 μg GLA s.c. 24 h before inoculation, counted three weeks later, GLA reducing the number
Procedure: Eighty-six six-month old F344 rats (44 females) were divided into three experimental groups (2 μg GLA, SE, and PBS). Each animal was injected s.c. with 100 μl according to its group assignment. Twenty-four hrs later, animals were lightly anesthetized with isoflurane and 10^5 MADB 106 tumor cells (approximately 4×10^5/kg) were injected into their tail vein in 0.5 ml of PBS (supplemented with 0.1% BSA). Three weeks later, rats were killed, and their lungs removed and placed for 24 h in Bouin's solution (72% saturated picric acid solution, 23% formaldehyde (37% solution) and 5% glacial acetic acid). After being washed in ethanol, visible surface metastases were counted by a researcher uninformed of the origin of each lung.

CNC[C@H](O)c1ccc(O)c(O)c1 [epinephrine, reference compound]
increasing LTR levels: effect of epinephrine on LTR (MADB 106 tumor cells [1]; s.c. slow-release emulsion given along with MADB 106 cell inoculation)

glucopyranosyl lipid adjuvant [GLA]
≥ 0.7 μg per animal: dosage giving an additive effect for GLA over SE effects on LTR (MADB 106 tumor cells [1]; male rats, s.c. 24 h before inoculation)
no effect: MADB 106 LTR in NK-depleted animals (MADB 106 tumor cells [1]; male rats, NK depletion by anti-NKR-P1 mAb, 2 μg GLA or SE s.c. 24 h before inoculation)
significant improvements: MADB 106 LTR, additive effect of GLA over SE (MADB 106 tumor cells [1]; male rats, epinephrine groups, 0.7 μg/animal s.c. 24 h before inoculation, p<0.05) | MADB 106 LTR, additive effect of GLA over SE (MADB 106 tumor cells [1]; male rats, epinephrine groups, 2.5 μg/animal s.c. 24 h before inoculation, p<0.01) | MADB 106 LTR, additive effect of GLA over SE (MADB 106 tumor cells [1]; male rats, epinephrine groups, 10 μg/animal s.c. 24 h before inoculation, p<0.01) | MADB 106 LTR, additive effect of GLA over SE (MADB 106 tumor cells [1]; male rats, epinephrine groups, 20 μg/animal s.c. 24 h before inoculation, p<0.001)
significant difference: number of lung surface metastases, GLA vs SE (MADB 106 tumor cells [2]; p<0.01) | number of lung surface metastases, GLA vs PBS (MADB 106 tumor cells [2]; p<0.05) | MADB 106 LTR, GLA vs PBS (time course) (MADB 106 tumor cells [1]; female rats, 2 μg GLA s.c. 24 h before inoculation, p<0.05) | MADB 106 LTR, GLA vs PBS (time course) (MADB 106 tumor cells [1]; female rats, 2 μg GLA s.c. 48 h before inoculation, p<0.05) | MADB 106 LTR, GLA vs PBS (time course) (MADB 106 tumor cells [1]; male rats, 2 μg GLA s.c. 4 h before inoculation, p<0.05) | MADB 106 LTR, GLA vs PBS (time course) (MADB 106 tumor cells [1]; male rats, 2 μg GLA s.c. 12 h before inoculation, p<0.0001) | MADB 106 LTR, GLA vs PBS (time course) (MADB 106 tumor cells [1]; male rats, 2 μg GLA s.c. 24 h before inoculation, p<0.0001) | MADB 106 LTR, GLA vs PBS (time course) (MADB 106 tumor cells [1]; male rats, 2 μg GLA s.c. 48 h before inoculation, p<0.0001) | MADB 106 LTR, GLA vs PBS, no-depletion condition (MADB 106 tumor cells [1]; male rats, no NK depletion, 2 μg GLA s.c. 24 h before inoculation, p<0.01)
positively correlated with its dosage: reduction of the epinephrine effect on LTR, relation to dosage (MADB 106 tumor cells [1]; male rats, epinephrine groups, 0.3-20 μg/animal)
significant improvement: MADB 106 LTR, GLA over PBS (MADB 106 tumor cells [1]; male rats, epinephrine groups, all GLA doses (0.3-20 μg/animal) s.c. 24 h before tumor inoculation, p<0.0001) | MADB 106 LTR, GLA over PBS (MADB 106 tumor cells [1]; male rats, vehicle (no epinephrine) groups, 0.7 μg/animal s.c. 24 h before inoculation, p<0.05) | MADB 106 LTR, GLA over PBS (MADB 106 tumor cells [1]; male rats, vehicle (no epinephrine) groups, 2.5 μg/animal s.c. 24 h before inoculation, p<0.01) | MADB 106 LTR, GLA over PBS (MADB 106 tumor cells [1]; male rats, vehicle (no epinephrine) groups, 10 μg/animal s.c. 24 h before inoculation, p<0.05) | MADB 106 LTR, GLA over PBS (MADB 106 tumor cells [1]; male rats, vehicle (no epinephrine) groups, 20 μg/animal s.c. 24 h before inoculation, p<0.01)
